The subject of test [1] is plasma proteins such as haptocorrin. The note with it: cited from earlier work.
For test [2], the system named is cyanide poisoning mouse models. Details: species or system mouse (ddY). The following applies: in vivo.
The subject of the next test is PC-12 cells. The class given is cell-based, rat. The following applies: for pEC50: read-out: EC50 of cyanide under existence of each antidote.
Test [3] relates to cyanide poisoning mouse models. Details: species or system mouse (ddY). The note with it: in vivo. The source holds these as a separate data set.
Test [4] concerns cyanide poisoning mouse models. Details: species or system mouse (ddY). The note with it: in vivo. The source holds these as a separate data set.

The pEC50 is the negative decadic logarithm of the EC50, by convention in mol/L.

pEC50: −log10 of the molar value. Several values for one entry are separate records, joined by “and”; a condition that tells them apart may be missing. Equal entries are not always repeated.

For the molecule `C/C1=C2/[N-][C@H]([C@H](CC(N)=O)[C@@]2(C)CCC(=O)NC[C@@H](C)OP(=O)([O-])O[C@H]2[C@@H](O)[C@@H](n3cnc4cc(C)c(C)cc43)O[C@@H]2CO)[C@]2(C)N=C(/C(C)=C3N=C(/C=C4N=C1[C@@H](CCC(N)=O)C\4(C)C)[C@@H](CCC(N)=O)[C@]\3(C)CC(N)=O)[C@@H](CCC(N)=O)[C@]2(C)CC(N)=O.[Co+3].[OH-]` [OHCbl, hydroxocobalamin], the “reduction of antidotal ability by binding to plasma proteins” value in test [1] is 1/600. Moreover, in test [2], the survival rate was 90% and 70% and 60%. In addition, the “cell viability compared with the control group to which only NaCN had been added” value in the test on PC-12 cells was “high survival rate”. The same molecule gave a mice survived in test [3] of 50%. Besides, the “time required until the recovery (coma to awakening)” value in test [4] was 4.8 min and 4.6 min.
As for `O=S([O-])([O-])=S.[Na+].[Na+]` [Na2S2O3, sodium thiosulfate], in the test on PC-12 cells, the “cell viability compared with the control group to which only NaCN had been added” value was “had no effects”; the pEC50 was 2.00 and 1.90 and 1.92 and 1.98 and 1.97.
In the case of “metHb: methemoglobin produced by oxidizing OxyHb with sodium nitrite”, in the test with PC-12 cells, the “cell viability compared with the control group to which only NaCN had been added” value was “significantly high survival rate”; the negative logarithm of the EC50 (pEC50) was 1.63 and 1.54 and 1.51 and 1.72.

The record behind these values is patent publication US20230310554A1 (priority 2020, published 2023).
